The values that follow come from article PMC9854762, “Antibiofilm and Anti-Quorum-Sensing Activities of Novel Pyrazole and Pyrazolo[1,5-a]pyrimidine Derivatives as Carbonic Anhydrase I and II Inhibitors: Design, Synthesis, Radiosterilization, and Molecular Docking Studies” (Antibiotics, 2023).

In brackets after ≈: the same amount, converted by molar mass.

Experiment [1] relates to E. coli DH-5987. The experiment is described as follows: Broth microdilution MIC/MBC. It counts as cell-based, Escherichia coli. The settings on record: for MBC/MIC / MIC / MIC (Mean ± SEM): E. coli DH-5987; for MBC/MIC: value in brackets; for MIC / MBC: Escherichia coli, DH5987; for MIC / MIC (Mean ± SEM): 24 h; for MIC: read-out: MIC (Mean ± SEM); for MBC: E. coli. As to the method: (§1) The broth microdilution method was taken as a basis to detect the MICs of pyrazole compounds against tested clinical isolates, according to the Clinical Laboratory and Standards Institute guidelines. The broth cultures were used to prepare the bacterial inoculums, and the suspensions were adjusted to the standard 0.5 McFarland turbidity. Stock solutions of the synthesized pyrazoles were prepared in pure DMSO and further serially diluted with TS broth in the concentration range from 128 µg/mL to 0.0625 µg/mL. A well containing noninoculated TS broth, free of any antimicrobial agents, was also included to ensure the medium sterility, while Erythromycin and Amikacin served as positive controls. Bacterial growth was determined by adding 20 µL of 0.5% TTC (2,3,5-triphenyltetrazolium chloride) aqueous solution. […] All experiments were repeated three times. The bactericidal effect from each concentration of the pyrazole and pyrazolo[1,5-a]pyrimidine derivatives showing growth inhibition was further studied. For this study, a loopful of 5 µL was taken from each no-visible growth tube and streaked onto plates of TS agar.

Another experiment deals with E. faecalis DH-5478. Nature of the experiment: Agar well-diffusion assay. It counts as cell-based. As to conditions: Enterococcus faecalis, DH5478; E. faecalis DH-5478; 50 µL of 10 mM per well; read-out: Diameter of Inhibition Zones (AZOI). The procedure: (§2) The synthesized compounds were initially screened for their in vitro antibacterial activity against the different Gram-positive and Gram-negative bacteria, tested using the agar well-diffusion assay. The turbidity of the bacterial suspensions was established to the 0.5 McFarland turbidity standard. The activity was performed on TS agar plates. The bacteria were spread on the surface of the agar plates, and 10 mm wells were screwed into the agar plates. The assay was performed under aseptic conditions. An aliquot of 50 µL of each tested compound (10 mM) was added to the wells, and the plates were incubated overnight at 37 °C. Both Erythromycin and Amikacin antibiotic disks were used as positive control, while DMSO solvent was used as a negative control in this study. The diameters of inhibition zones were measured and recorded in mm. A comparative study of the synthesized compounds was determined. The experiment was performed in triplicates.

In experiment [2] the test system is E. coli DH-5987. The experiment is described as follows: Agar well-diffusion assay. As to conditions: Escherichia coli, DH5987, 50 µL of 10 mM per well, read-out: Diameter of Inhibition Zones (AZOI). It counts as cell-based. The procedure: as §2
The test system of experiment [3] is A. baumannii DH-243. The experiment is described as follows: Agar well-diffusion assay. It counts as cell-based. As to conditions: Acinetobacter baumannii, DH243; A. baumannii DH-243; 50 µL of 10 mM per well; read-out: Diameter of Inhibition Zones (AZOI). The procedure:
as §2

In another experiment the test system is S. aureus DH-432. The experiment is described as follows: Agar well-diffusion assay. It counts as cell-based. As to conditions: Staphylococcus aureus, DH432; S. aureus DH-432; 50 µL of 10 mM per well; read-out: Diameter of Inhibition Zones (AZOI). The procedure: as §2
For a further experiment, the system named is S. pyogenes DH-3467. Nature of the experiment: Agar well-diffusion assay. As to conditions: Streptococcus pyogenes, DH3467; S. pyogenes DH-3467; 50 µL of 10 mM per well; read-out: Diameter of Inhibition Zones (AZOI). It is filed as cell-based. As to the method: as §2
Another experiment deals with Gram-negative isolates. The experiment is described as follows: Broth microdilution MIC/MBC, summary. It counts as cell-based. The procedure:
as §1

The subject of a further experiment is Gram-positive isolates. The experiment is described as follows: Broth microdilution MIC/MBC, summary. It is filed as cell-based. The procedure: as §1
The test system of a further experiment is P. aeruginosa. The experiment is described as follows: Anti-QS activity via signal inhibition, CV026 as indicator. It counts as cell-based. The settings on record: P. aeruginosa 10^6 CFU/mL; sub-MICs; control 11.2 mm. As to the method:
(§3) The anti-QS potential of the tested compounds was explored as described. Briefly, an overnight bacterial suspension of the indicator organism C. violaceum CV026 was prepared in a concentration of 10^6 CFU/mL, and an aliquot of 200 µL was seeded in 5 mm of Soft Top agar (1.3 g agar, 2.0 g tryptone, 1.0 g NaCl, and 200 mL deionized water), supplemented with 20 µL of 0.25 µg/mL C6-HSL (N-hexanoyl-L-homoserine lactone), added as an exogenous AHL source. Wells were cut in the center of the plate after incubation for 30 min and then filled with 50 µL of sub-MICs of each most-active pyrazole hybrid. DMSO was used as a negative control. The plates were incubated at 28 °C for 48 h. Inhibition of violacein production by the indicator strain around the well, indicated by the presence of a white circle surrounded by a purple halo, was considered as positive for QS interference. For further investigation to determine the anti-QS activity for the pyrazole against the biofilm-forming bacterial isolates, an in vitro screening was performed. This was carried out by inoculation of 200 µL from an O/N CV026 culture onto plates of Soft Top agar. Wells of 8 mm diameter were separately made and filled with 90 µL of each biofilm-forming bacterial isolate (10^6 CFU/mL), plus 10 µL of each active pyrazole derivative (sub-MICs). Wells containing the bacterial isolates without treatment were used as controls. The signal diffusion zone diameter produced during the bacterial growth was measured in the presence of pyrazole and pyrazolo[1,5-a]pyrimidine derivatives and compared with the zone diameter of the violacein production by CV026.

Another experiment deals with S. aureus. Described as above. It is filed as cell-based. As to conditions: S. aureus 10^6 CFU/mL; sub-MICs; control 12.0 mm. As to the method: as §3
Experiment [4] deals with A. baumannii DH-243. Nature of the experiment: Broth microdilution MIC/MBC. It counts as cell-based, Acinetobacter baumannii. The settings on record: for MIC: Acinetobacter baumannii, DH243, 24 h, read-out: MIC (Mean ± SEM); for MBC/MIC: value in brackets. The procedure:
as §1

The next experiment has as its system tested isolates. The experiment is described as follows: Broth microdilution MIC/MBC, summary. It is filed as cell-based. The procedure: as §1

For `CCOC(=O)c1ccc(N=Nc2c(N)n[nH]c2N)cc1` [Compound 3a, Ethyl 4-((3,5-diamino-1H-pyrazol-4-yl)diazenyl)benzoate], the MBC/MIC with E. coli DH-5987 [1] and against A. baumannii DH-243 [4] was 0.5 in each case. The MIC with E. coli DH-5987 [1] was 0.0625 ± 0.4 µg/mL (≈ 0.228 µM); against Gram-negative isolates, 0.062 to 0.25 µg/mL (≈ 0.226 to 0.911 µM); in the experiment on Gram-positive isolates, 0.125 µg/mL (≈ 0.456 µM); in the experiment with A. baumannii DH-243 [4] it was 0.25 ± 0.2 µg/mL (≈ 0.911 µM). Also, the zone of inhibition at 10000 µM with E. faecalis DH-5478 was determined as 30.6 mm; in the experiment on E. coli DH-5987 [2] it was 32 mm; with A. baumannii DH-243 [3], 29.3 mm; in the experiment with S. aureus DH-432 it was 31.1 mm; with S. pyogenes DH-3467, 31.5 mm. Also, the “QS signal diffusion zone” value is on record as 7.8 mm in the experiment with P. aeruginosa and 5.0 mm in the experiment with S. aureus.

Take `CCOC(=O)c1ccc(N=Nc2c(N=Cc3ccc(N(C)C)cc3)n[nH]c2N)cc1` [Compound 5a, Ethyl 4-((5-amino-3-((4-(dimethylamino)benzylidene)amino)-1H-pyrazol-4-yl)diazenyl)benzoate]: the MBC/MIC against E. coli DH-5987 [1] and against A. baumannii DH-243 [4] was 0.5 each time. Further, the minimal inhibitory concentration (MIC) with E. coli DH-5987 [1] was 0.25 µg/mL (≈ 0.617 µM); against tested isolates (other isolates (not S. aureus, E. coli)), 0.5 µg/mL (≈ 1.23 µM); in the experiment with A. baumannii DH-243 [4], 0.5 ± 0.3 µg/mL (≈ 1.23 µM). In addition, the zone of inhibition at 10000 µM was 28.2 mm in the experiment on E. faecalis DH-5478; 29.9 mm in the experiment with E. coli DH-5987 [2]; 28 mm in the experiment with A. baumannii DH-243 [3]; 28.6 mm in the experiment on S. aureus DH-432; 28.9 mm with S. pyogenes DH-3467. The “QS signal diffusion zone” value in the experiment with P. aeruginosa came to 9.8 mm; in the experiment with S. aureus it was 7.3 mm.

As to `CCOC(=O)c1ccc(N=Nc2c(N)nn3c(C)cc(C)nc23)cc1` [Compound 6, ethyl-4-((2-amino-5,7-dimethylpyrazolo[1,5-a]pyrimidin-3-yl)diazenyl)benzoate], the MBC/MIC with E. coli DH-5987 [1] and in the experiment with A. baumannii DH-243 [4] was 0.5 throughout. Also, the MIC is 0.25 ± 0.1 µg/mL (≈ 0.739 µM) in the experiment on E. coli DH-5987 [1]; 0.187 to 0.375 µg/mL (≈ 0.553 to 1.11 µM) against tested isolates (S. aureus, E. faecalis, and P. aeruginosa); 0.5 ± 0.1 µg/mL (≈ 1.48 µM) in the experiment with A. baumannii DH-243 [4]. Besides, the zone of inhibition at 10000 µM in the experiment with E. faecalis DH-5478 stood at 29.5 mm; with E. coli DH-5987 [2] it was 31 mm; with A. baumannii DH-243 [3], 28.8 mm; with S. aureus DH-432 it was 29.5 mm; in the experiment with S. pyogenes DH-3467, 30.2 mm. Moreover, the “QS signal diffusion zone” value in the experiment with P. aeruginosa is reported as 8.7 mm; in the experiment with S. aureus it was 6.5 mm.

For the compound `CCOC(=O)c1ccc(N=Nc2c(N)nn3c(N)c(C#N)c(-c4ccc(N(C)C)cc4)nc23)cc1` [Compound 9a, Ethyl-4-((2,7-diamino-6-cyano-5-(4-(dimethylamino)phenyl)pyrazolo[1,5-a]pyrimidin-3-yl)diazenyl)benzoate], the “MIC (Mean ± SEM)” value in the experiment on E. coli DH-5987 [1] was determined as 0.125 ± 0.1 µg/mL (≈ 0.266 µM). For the same compound, the MBC/MIC in the experiment with E. coli DH-5987 [1] and against A. baumannii DH-243 [4] was 0.5 each time. For the same compound, the MBC in the experiment on E. coli DH-5987 [1] is 0.0625 µg/mL (≈ 0.133 µM); against Gram-positive isolates, 0.125 to 0.25 µg/mL (≈ 0.266 to 0.532 µM). In addition, the minimal inhibitory concentration (MIC) with E. coli DH-5987 [1] was 0.125 µg/mL (≈ 0.266 µM); in the experiment with Gram-positive isolates it was 0.25 to 0.5 µg/mL (≈ 0.532 to 1.06 µM); with A. baumannii DH-243 [4], 0.375 ± 0.2 µg/mL (≈ 0.799 µM). Further, the zone of inhibition at 10000 µM turned out to be 28.7 mm in the experiment with E. faecalis DH-5478; 30.4 mm in the experiment with E. coli DH-5987 [2]; 28.4 mm in the experiment with A. baumannii DH-243 [3]; 29.1 mm in the experiment on S. aureus DH-432; 29.3 mm with S. pyogenes DH-3467. Also, the “QS signal diffusion zone” value with P. aeruginosa is recorded as 9.5 mm; in the experiment on S. aureus, 6.9 mm.

Regarding `CCOC(=O)c1ccc(N=Nc2c(N)nn3c(O)c(C#N)c(-c4ccc(N(C)C)cc4)nc23)cc1` [Compound 10a, Ethyl-4-((2-amino-6-cyano-5-(4-(dimethylamino)phenyl)-7-hydroxypyrazolo[1,5-a]pyrimidin-3-yl)diazenyl)benzoate], the “MIC (Mean ± SEM)” value with E. coli DH-5987 [1] is given as 0.125 ± 0.2 µg/mL (≈ 0.266 µM). Besides, in the experiment on E. coli DH-5987 [1], the minimum bactericidal concentration (MBC) is 0.0625 µg/mL (≈ 0.133 µM). The MIC amounted to 0.125 µg/mL (≈ 0.266 µM) with E. coli DH-5987 [1] and 0.375 ± 0.4 µg/mL (≈ 0.797 µM) with A. baumannii DH-243 [4]. In addition, the zone of inhibition at 10000 µM in the experiment with E. faecalis DH-5478 was found to be 29.8 mm; in the experiment with E. coli DH-5987 [2], 31.5 mm; in the experiment with A. baumannii DH-243 [3], 29.1 mm; with S. aureus DH-432 it was 30.6 mm; with S. pyogenes DH-3467, 30.7 mm. The “QS signal diffusion zone” value is given as 8.0 mm in the experiment on P. aeruginosa and 6.2 mm in the experiment with S. aureus. The compound further had an MBC/MIC against A. baumannii DH-243 [4] of 0.5.
